In US11672792B2, “Topical formulations comprising montelukast and combinations with mussel adhesive proteins” (ENLITISA (SHANGHAI) PHARMACEUTICAL CO., LTD, priority 2017, dated 2023):
Read-outs that look alike come from different tables or passages of the source.

Experiments:
[1] = tested on: burn wounds; test: Burn Injury Model (Example 3); format: in vivo, Sprague-Dawley rats; details: per wound: dexamethasone 0.4 mg, MAP 0.25 mg, montelukast 0.25 mg, once daily topically
Method: Healthy adult male Sprague-Dawley rats weighing between 200 and 300 g were supplied by Beijing Vital River Laboratory Animal Technology Co. Ltd, Beijing, China.
Prior to any experiments being conducted, rats were housed under standardized conditions (at a constant temperature or 22 t 2° C., with alternating 12 hour periods of light and darkness) and were fed on a standard rat diet with water.
Rats were anaesthetised with 3% chloral hydrate (Sinopharm Chemical Reagent Co., Ltd., Shanghai, China) (1 mL/100 g of body weight) administered by intraperitoneal injection. The dorsal trunk was of each rat was shaved with an electric razor and surgically prepared with 70% alcohol scrubs. A constant temperature and constant pressure scald instrument (YLS-5Q, Shandong Academy of Medical Sciences, China) was employed, as this allows for a precise measurement of pressure applied to the skin surface. Thermal injury was induced by heating a stylus (with a surface area of 4 cm^2) to 80° C. and applying the stylus to the surface of the skin for a contact time of 18 seconds. 500 grams of pressure was applied during the operation. In this way, four two-degree shallow to deep burn wounds were created on each rat. Test compounds or vehicle were applied to the surface of the wound.
Rats were kept in separate cages but were allowed to move freely throughout the test period. In the first treatment, 500 μL of the relevant solutions was applied about 3 to 4 hours after the surgery (Day 0) and then once daily for the next 7 days. Gross appearances of the scald wounds were observed every day. Photographs were taken at 48 hours (Day 2), and on the 4th (Day 4) and 7th (Day 7) days with a digital camera to compare wound healing. The skin lesions were evaluated for the following criteria: blistering, swelling, redness, crust, bleeding, secretion, granulation tissue and scar tissue. The degree of healing was expressed as the wound contraction ratio (WCR): WCR=(A0−At)/A0×100% in which A0 and At refer to the initial area and the wound area at time t, respectively.
On Days 2, 4 and 7 after application of the burn, two rats were sacrificed and the burned skins excised. The freshly isolated skin was fixed in 10% neutral buffered formalin (which contained 4% of formaldehyde). This was used for histological embedding, staining and immunohistochemical studies.
Administered solutions were made up substantially as described in Example 1 above.
Burn scores are shown in Table 12 below and are illustrated in FIG. 3. Skin samples were sent to the Department of Pathology of Nanjing Hospital of Chinese Medicine, China. Samples were fixed and embedded, and histological sections were cut and stained. The stained sections were examined under a light microscope and pictures were taken. All pictures were interpreted and scored according to the following criteria: first degree—the epidermis was damaged and the substrate remains intact (score 1 point); superficial second degree—the epidermis was completely damaged and the papillary layer was damaged (1.5 points): deep second degree—the dermis was injured into the reticular layer and retain some dermis (2.5 points); and third degree—the dermis was completely damaged and the muscles and/or bones affected (3 points).

[2] = tested on: full thickness skin wounds in diabetic mice; test: Diabetic Wound Model (Example 7); format: in vivo, db/db mice (C57BL/KsJ-db/db); details: Day 6, Mon 100 μg/each
Method: A similar experiment with essentially the same protocol to that described in Example 6 above was carried out on 8 to 12 week-old male db/db mice (C57BL/KsJ-db/db, with a body weight of 35-45 g/mouse; supplied by Changzhou Cvens Experimental Animal Co. Ltd.).
An EMS skin biopsy punch with a […] diameter was used to make wounds.
Different drugs were administrated topically at 20 μL/wound, once daily from Day 0 to Day 18. The model group was given same amount of normal saline.
Samples were taken on Day 6, Day 12 and Day 18 post-wound inflictions.
Histological specimens were analyzed and skin regeneration, fibroblast proliferation, collagen regeneration scores (Masson score) and inflammation scores were estimated as follows.
The HE and Masson stained slices were observed under an optical microscope and were scored (1, 2 or 3 points) according to the following criteria. […]
Fibroblast proliferation was scored as the following criteria:
Inflammation was scored as the following criteria:
Collagen deposition score criterion for the Masson stained sample were as follows. […] No clear blue staining was given 0 points; blue fiber appearing in a scattered pattern was scored as 1 points; if more blue fiber appeared, this was scored as 2 points, and a diffuse blue colour was given 3 points.

[3] = for Montelukast amount in skin sample: unscalded intact skin
[4] = pH and stability of montelukast formulations; details: PEG-based creams or ointments; not prone to oxidation

Montelukast amount in skin sample ([3]; 0 h, 1 g montelukast cream topically) | Montelukast amount in skin sample ([3]; 1 h) | Montelukast amount in skin sample ([3]; 2 h) | Montelukast amount in skin sample ([3]; 3 h) | Montelukast amount in skin sample ([3]; 6 h) | Montelukast amount in skin sample ([3]; 8 h) | time of montelukast peak in skin ([3]; scalded skin) | stability of formulation (in words) [4] | SMILES | Burn score ([1]; Day 2) | Burn score ([1]; Day 4) | Burn score ([1]; Day 7) | increase of VEGF production in the wounded tissue in comparison with model group [2] | VEGF content, Mean ([2]; wound tissue, rhEGF 100 IU/each, once daily topically)
– | – | – | – | – | – | – | – | C[C@@H]1C[C@H]2[C@@H]3CCC4=CC(=O)C=C[C@]4(C)[C@@]3(F)[C@@H](O)C[C@]2(C)[C@@]1(O)C(=O)CO [Dexamethasone, dexamethasone] | 2.25 | 2.64 | 2.50 | – | –
0 g | 2.53 g | 5.44 g | 0.89 g | 0.90 g | 3.54 g | 2 h | surprisingly stable | CC(C)(O)c1ccccc1CC[C@@H](SCC1(CC(=O)O)CC1)c1cccc(/C=C/c2ccc3ccc(Cl)cc3n2)c1 [Mon, Montelukast sodium] | 1.50 | 2.38 | 2.00 | about 74% | 5.47 pg/g
